{"source": "patent US11337950B2", "about": "“Biologically active cannabidiol analogs” (University of Mississippi, priority 2016, dated 2022)", "key": {"[1]": {"test": "Plasma and organ concentrations of CBD and CBD-Mono-VHS after IP administration (Example 22)", "assay_type": "in vivo", "details": "mice, 70 Minutes; for Total CBD, Total, AVG. / Total CBD, Total / Total CBD-Mono-Val-Mono-HS, Total, AVG. / Total CBD-Mono-Val-Mono-HS, Total: sum of the columns; for CBD Plasma Concentration / Total CBD, Brain / Total CBD, Kidney / Total CBD, Liver / Total CBD, Spleen / Total CBD, Total / CBD-Mono-Val-Mono-HS Plasma Concentration / Total CBD-Mono-Val-Mono-HS, Brain / Total CBD-Mono-Val-Mono-HS, Kidney / Total CBD-Mono-Val-Mono-HS, Liver / Total CBD-Mono-Val-Mono-HS, Spleen / Total CBD-Mono-Val-Mono-HS, Total: individual animals; for CBD-Mono-Val-Mono-HS Plasma Concentration, AVG. / Total CBD-Mono-Val-Mono-HS, Brain, AVG. / Total CBD-Mono-Val-Mono-HS, Kidney, AVG. / Total CBD-Mono-Val-Mono-HS, Liver, AVG. / Total CBD-Mono-Val-Mono-HS, Spleen, AVG. / Total CBD-Mono-Val-Mono-HS, Total, AVG. / CBD-Mono-Val-Mono-HS Plasma Concentration / Total CBD-Mono-Val-Mono-HS, Brain / Total CBD-Mono-Val-Mono-HS, Kidney / Total CBD-Mono-Val-Mono-HS, Liver / Total CBD-Mono-Val-Mono-HS, Spleen / Total CBD-Mono-Val-Mono-HS, Total: IP; for CBD-Mono-Val-Mono-HS Plasma Concentration / Total CBD-Mono-Val-Mono-HS, Brain / Total CBD-Mono-Val-Mono-HS, Kidney / Total CBD-Mono-Val-Mono-HS, Liver / Total CBD-Mono-Val-Mono-HS, Spleen / Total CBD-Mono-Val-Mono-HS, Total: listed as CBD-Mono-Val-Mono-HS", "experimental": "CBD-Mono-VHS was administered intraperitoneally to mice at 2 doses (30 μg and 60 μg equivalent of CBD/mouse). Seventy minutes after dosing the animals (3 mice in each dose group), all animals were sacrificed. Blood, as well as organs (liver, spleen, kidney, and brain), were harvested for LC-MS/MS analysis of their content of both CBD and CBD-Mono-VHS.\nAlso shown is the concentration of CBD-Mono-VHS in the plasma 70 minutes after dosing."}, "[2]": {"test": "Organ distribution of CBD-Mono-VHS after oral administration (Example 19)", "assay_type": "in vivo, rats", "details": "rat, oral 4 mg/animal", "experimental": "To determine whether CBD-Mono-VHS reaches the organs and especially the brain, two cannulated rats were administered same dose as those in Example 18. One rat was sacrificed at 2 hr. after dosing and the other at 4 hr. after dosing and the organs were harvested (brain, liver, and spleen) as well as blood for analysis."}, "[3]": {"details": "IP CBD-Mono-VHS, High Dose (60 μg CBD/mouse)"}, "[4]": {"details": "IP CBD-Mono-VHS, Low Dose (30 μg CBD/mouse), AVG."}, "[5]": {"details": "IP CBD-Mono-VHS, Low Dose (30 μg CBD/mouse)"}, "[6]": {"details": "High Dose (60 μg CBD/mouse), AVG."}, "[7]": {"details": "Low Dose (30 μg CBD/mouse), AVG."}}, "note": "Where “and” joins values, the source holds several entries; their conditions need not be identical. Equal values may be shown once.", "data": [{"smiles": "C=C(C)C1CCC(C)=CC1c1c(O)cc(CCCCC)cc1OC(=O)[C@@H](NC(=O)CCC(=O)O)C(C)C", "note": "(stereo partly drawn) [CBD-Mono-VHS, CBD-Mono-Valinate-Mono-Hemisuccinate]", "values": [{"measurement": "Total CBD, Total, AVG.", "setting": "[1]; IP CBD-Mono-VHS, High Dose (60 μg CBD/mouse), AVG.", "result": 371.63, "unit": "ng"}, {"measurement": "CBD Plasma Concentration", "setting": "[1]; [3]", "result": 0.00, "unit": "ng/mL"}, {"measurement": "Total CBD, Brain", "setting": "[1]; [3]", "result": "0.00 ng (2×) and 2.86 ng"}, {"measurement": "Total CBD, Kidney", "setting": "[1]; [3]", "result": "18.50 ng and 14.96 ng and 0.00 ng"}, {"measurement": "Total CBD, Liver", "setting": "[1]; [3]", "result": "319.91 ng and 195.66 ng and 369.75 ng"}, {"measurement": "Total CBD, Spleen", "setting": "[1]; [3]", "result": "93.63 ng and 99.63 ng and 0.00 ng"}, {"measurement": "Total CBD, Total", "setting": "[1]; [3]", "result": "432.04 ng and 310.25 ng and 372.61 ng"}, {"measurement": "CBD Plasma Concentration, AVG.", "setting": "[1]; [4]", "result": 0.00, "unit": "ng/mL"}, {"measurement": "Total CBD, Brain, AVG.", "setting": "[1]; [4]", "result": 0.00, "unit": "ng"}, {"measurement": "Total CBD, Kidney, AVG.", "setting": "[1]; [4]", "result": 2.343, "unit": "ng"}, {"measurement": "Total CBD, Liver, AVG.", "setting": "[1]; [4]", "result": 47.62, "unit": "ng"}, {"measurement": "Total CBD, Spleen, AVG.", "setting": "[1]; [4]", "result": 9.46, "unit": "ng"}, {"measurement": "Total CBD, Total, AVG.", "setting": "[1]; [4]", "result": 59.42, "unit": "ng"}, {"measurement": "CBD Plasma Concentration", "setting": "[1]; [5]", "result": 0.00, "unit": "ng/mL"}, {"measurement": "Total CBD, Brain", "setting": "[1]; [5]", "result": 0.00, "unit": "ng"}, {"measurement": "Total CBD, Kidney", "setting": "[1]; [5]", "result": "7.03 ng and 0.00 ng (2×)"}, {"measurement": "Total CBD, Liver", "setting": "[1]; [5]", "result": "41.82 ng and 19.61 ng and 81.42 ng"}, {"measurement": "Total CBD, Spleen", "setting": "[1]; [5]", "result": "10.04 ng and 18.35 ng and 0.00 ng"}, {"measurement": "Total CBD, Total", "setting": "[1]; [5]", "result": "58.89 ng and 37.96 ng and 81.42 ng"}, {"measurement": "CBD-Mono-Val-Mono-HS Plasma Concentration, AVG.", "setting": "[1]; [6]", "result": 210.45, "unit": "ng/mL"}, {"measurement": "Total CBD-Mono-Val-Mono-HS, Brain, AVG.", "setting": "[1]; [6]", "result": 63.51, "unit": "ng"}, {"measurement": "Total CBD-Mono-Val-Mono-HS, Kidney, AVG.", "setting": "[1]; [6]", "result": 1193.95, "unit": "ng"}, {"measurement": "Total CBD-Mono-Val-Mono-HS, Liver, AVG.", "setting": "[1]; [6]", "result": 7558.89, "unit": "ng"}, {"measurement": "Total CBD-Mono-Val-Mono-HS, Spleen, AVG.", "setting": "[1]; [6]", "result": 771.76, "unit": "ng"}, {"measurement": "Total CBD-Mono-Val-Mono-HS, Total, AVG.", "setting": "[1]; [6]", "result": 9798.56, "unit": "ng"}, {"measurement": "CBD-Mono-Val-Mono-HS Plasma Concentration", "setting": "[1]; High Dose (60 μg CBD/mouse)", "result": "137.82 ng/mL and 100.53 ng/mL and 393.00 ng/mL"}, {"measurement": "Total CBD-Mono-Val-Mono-HS, Brain", "setting": "[1]; High Dose (60 μg CBD/mouse)", "result": "46.59 ng and 42.45 ng and 101.50 ng"}, {"measurement": "Total CBD-Mono-Val-Mono-HS, Kidney", "setting": "[1]; High Dose (60 μg CBD/mouse)", "result": "780.57 ng and 248.34 ng and 2552.93 ng"}, {"measurement": "Total CBD-Mono-Val-Mono-HS, Liver", "setting": "[1]; High Dose (60 μg CBD/mouse)", "result": "8380.90 ng and 2882.40 ng and 11413.38 ng"}, {"measurement": "Total CBD-Mono-Val-Mono-HS, Spleen", "setting": "[1]; High Dose (60 μg CBD/mouse)", "result": "711.31 ng and 477.40 ng and 1126.58 ng"}, {"measurement": "Total CBD-Mono-Val-Mono-HS, Total", "setting": "[1]; High Dose (60 μg CBD/mouse)", "result": "10057.18 ng and 3751.113 ng and 15587.4 ng"}, {"measurement": "CBD-Mono-Val-Mono-HS Plasma Concentration, AVG.", "setting": "[1]; [7]", "result": 29.10, "unit": "ng/mL"}, {"measurement": "Total CBD-Mono-Val-Mono-HS, Brain, AVG.", "setting": "[1]; [7]", "result": 9.18, "unit": "ng"}, {"measurement": "Total CBD-Mono-Val-Mono-HS, Kidney, AVG.", "setting": "[1]; [7]", "result": 101.58, "unit": "ng"}, {"measurement": "Total CBD-Mono-Val-Mono-HS, Liver, AVG.", "setting": "[1]; [7]", "result": 1170.01, "unit": "ng"}, {"measurement": "Total CBD-Mono-Val-Mono-HS, Spleen, AVG.", "setting": "[1]; [7]", "result": 179.54, "unit": "ng"}, {"measurement": "Total CBD-Mono-Val-Mono-HS, Total, AVG.", "setting": "[1]; [7]", "result": 1489.42, "unit": "ng"}, {"measurement": "CBD-Mono-Val-Mono-HS Plasma Concentration", "setting": "[1]; Low Dose (30 μg CBD/mouse)", "result": "32.08 ng/mL and 32.24 ng/mL and 22.97 ng/mL"}, {"measurement": "Total CBD-Mono-Val-Mono-HS, Brain", "setting": "[1]; Low Dose (30 μg CBD/mouse)", "result": "13.48 ng and 8.26 ng and 5.81 ng"}, {"measurement": "Total CBD-Mono-Val-Mono-HS, Kidney", "setting": "[1]; Low Dose (30 μg CBD/mouse)", "result": "88.05 ng and 84.14 ng and 132.55 ng"}, {"measurement": "Total CBD-Mono-Val-Mono-HS, Liver", "setting": "[1]; Low Dose (30 μg CBD/mouse)", "result": "1431.98 ng and 534.11 ng and 1543.96 ng"}, {"measurement": "Total CBD-Mono-Val-Mono-HS, Spleen", "setting": "[1]; Low Dose (30 μg CBD/mouse)", "result": "105.24 ng and 283.02 ng and 150.36 ng"}, {"measurement": "Total CBD-Mono-Val-Mono-HS, Total", "setting": "[1]; Low Dose (30 μg CBD/mouse)", "result": "1670.831 ng and 941.765 ng and 1855.656 ng"}, {"measurement": "Organ level of CBD-Mono-VHS, BRAIN", "setting": "[2]; 2 HR", "result": 556, "unit": "ng/organ"}, {"measurement": "Organ level of CBD-Mono-VHS, LIVER", "setting": "[2]; 2 HR", "result": 66484, "unit": "ng/organ"}, {"measurement": "Organ level of CBD-Mono-VHS, SPLEEN", "setting": "[2]; 2 HR", "result": 1438, "unit": "ng/organ"}, {"measurement": "Plasma level of CBD-Mono-VHS", "setting": "[2]; 2 HR", "result": 0.285, "unit": "µg/mL"}, {"measurement": "Organ level of CBD-Mono-VHS, BRAIN", "setting": "[2]; 4 HR", "result": 205, "unit": "ng/organ"}, {"measurement": "Organ level of CBD-Mono-VHS, LIVER", "setting": "[2]; 4 HR", "result": 8301, "unit": "ng/organ"}, {"measurement": "Organ level of CBD-Mono-VHS, SPLEEN", "setting": "[2]; 4 HR", "result": 392, "unit": "ng/organ"}, {"measurement": "Plasma level of CBD-Mono-VHS", "setting": "[2]; 4 HR", "result": 0.053, "unit": "µg/mL"}]}]}
